Data as given in patent US12509444B2, “Compounds and methods for CD73 modulation and indications therefor” (Plexxikon Inc., priority 2019, dated 2025).

Experiments:
human CD73 = biological target: T1, human CD73 (Homo sapiens, UniProt P21589); experiment: Inhibitor activity against CD73 in cell based assay (CD73 expressing CHO-K1 cells); settings: CHO-K1 cells expressing human CD73, 150 μM AMP, 4 hours of incubation; read-out: CHO-K1 CELL VARIANT: CD73 IC50
T1 construct: expressed in transfected cells
T1 sequence (P21589 27-549): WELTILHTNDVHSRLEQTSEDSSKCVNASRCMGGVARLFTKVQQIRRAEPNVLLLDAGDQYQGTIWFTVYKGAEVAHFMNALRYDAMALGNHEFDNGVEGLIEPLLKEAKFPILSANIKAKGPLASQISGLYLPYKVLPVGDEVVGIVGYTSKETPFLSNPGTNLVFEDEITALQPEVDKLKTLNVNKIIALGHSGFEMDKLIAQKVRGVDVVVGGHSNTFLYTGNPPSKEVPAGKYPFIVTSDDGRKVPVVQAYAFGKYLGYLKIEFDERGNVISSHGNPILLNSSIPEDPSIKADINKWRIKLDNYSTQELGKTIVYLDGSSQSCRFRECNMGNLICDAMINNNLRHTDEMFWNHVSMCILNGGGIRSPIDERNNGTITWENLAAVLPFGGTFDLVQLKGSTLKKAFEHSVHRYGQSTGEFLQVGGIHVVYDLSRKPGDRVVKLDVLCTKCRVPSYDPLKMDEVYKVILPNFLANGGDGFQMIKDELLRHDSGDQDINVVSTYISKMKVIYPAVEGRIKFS
Outline: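 Stably transfected CHO-K1 cells expressing human CD73 (1×10^4/well) incubated 4 h with compound (8-point 1:3 titration, top 10 μM final, 0.2% DMSO) and 150 μM AMP. Residual AMP in supernatant measured by CellTiter-Glo luminescence with 1 μM ATP after 30 min at room temperature; IC50 by nonlinear regression of percent inhibition vs high/low controls.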

[1] = biological target: T2, Human CD73 (amino acid residues 27-549) (Homo sapiens, UniProt P21589); experiment: CD73 enzymatic assay (luciferase-based indirect assay, CellTiter-Glo); assay type: biochemical; settings: 0.4 nM CD73, 150 μM AMP, 1 hour at room temperature
T2 construct: Human CD73 (amino acid residues 27-549); His tag (N); made in house; host or cells: E. coli
T2 sequence (P21589 27-549): T1 sequence (P21589 27-549)
Outline: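 His-tagged human CD73 (27-549) from E. coli, 0.4 nM, with 150 μM AMP in 50 mM HEPES pH 7.4, 0.01% Tween 20; 1 h at room temperature. AMP remaining read by CellTiter-Glo 2.0 luminescence with 1 μM final ATP after 30 min. IC50 from nonlinear regression of % inhibition.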

SMILES | IC50 (human CD73) [µM] | IC50 [1] [µM]
C[C@@H]1CCCC[C@@H]1NC(=O)O[C@@H]1CCN(c2cn[nH]c(=O)c2Cl)C1 [P-0288, (R)-1-(5-chloro-6-oxo-1,6-dihydropyridazin-4-yl)pyrrolidin-3-yl ((1S,2R)-2-methylcyclohexyl)carbamate] | 0.001 to 10 | 0.001 to 10
Cn1ncc(N2CC[C@@H](OC(=O)N[C@H]3CC[C@H](NS(=O)(=O)c4ccc(F)cc4F)CC3)C2)c(Cl)c1=O [P-0289, (R)-1-(5-chloro-1-methyl-6-oxo-1,6-dihydropyridazin-4-yl)pyrrolidin-3-yl ((1r,4R)-4-((2,4-difluorophenyl)sulfonamido)cyclohexyl)carbamate] | 0.001 to 10 | 0.001 to 10
O=C(N[C@H]1CC[C@@H](NC(=O)C2CCC2)CC1)O[C@@H]1CCN(c2cn[nH]c(=O)c2Cl)C1 [P-0290, (R)-1-(5-chloro-6-oxo-1,6-dihydropyridazin-4-yl)pyrrolidin-3-yl ((1s,4S)-4-(cyclobutanecarboxamido)cyclohexyl)carbamate] | 0.001 to 10 | 0.001 to 10
O=C(N[C@H]1CC[C@H](NS(=O)(=O)C2CCC2)CC1)O[C@@H]1CCN(c2cn[nH]c(=O)c2Cl)C1 [P-0291, (R)-1-(5-chloro-6-oxo-1,6-dihydropyridazin-4-yl)pyrrolidin-3-yl ((1r,4R)-4-(cyclobutanesulfonamido)cyclohexyl)carbamate] | 0.001 to 10 | 0.001 to 10
O=C(N[C@H]1CC[C@H](NS(=O)(=O)c2ccc(Cl)cc2)CC1)O[C@@H]1CCN(c2cn[nH]c(=O)c2Cl)C1 [P-0292, (R)-1-(5-chloro-6-oxo-1,6-dihydropyridazin-4-yl)pyrrolidin-3-yl ((1r,4R)-4-((4-chlorophenyl)sulfonamido)cyclohexyl)carbamate] | 0.001 to 10 | 0.001 to 10
Cc1ccc(S(=O)(=O)N[C@H]2CC[C@H](NC(=O)O[C@@H]3CCN(c4cn[nH]c(=O)c4Cl)C3)CC2)cc1 [P-0293, (R)-1-(5-chloro-6-oxo-1,6-dihydropyridazin-4-yl)pyrrolidin-3-yl ((1r,4R)-4-((4-methylphenyl)sulfonamido)cyclohexyl)carbamate] | 0.001 to 10 | 0.001 to 10
O=C(N[C@H]1CC[C@H](NS(=O)(=O)c2cccc(F)c2)CC1)O[C@@H]1CCN(c2cn[nH]c(=O)c2Cl)C1 [P-0294, (R)-1-(5-chloro-6-oxo-1,6-dihydropyridazin-4-yl)pyrrolidin-3-yl ((1r,4R)-4-((3-fluorophenyl)sulfonamido)cyclohexyl)carbamate] | 0.001 to 10 | 0.001 to 10
O=C(N[C@H]1CC[C@H](NS(=O)(=O)c2cccnc2)CC1)O[C@@H]1CCN(c2cn[nH]c(=O)c2Cl)C1 [P-0295, (R)-1-(5-chloro-6-oxo-1,6-dihydropyridazin-4-yl)pyrrolidin-3-yl ((1r,4R)-4-(pyridine-3-sulfonamido)cyclohexyl) carbamate] | 0.001 to 10 | 0.001 to 10
O=C(N[C@H]1CC[C@H](NS(=O)(=O)c2ccc3ncsc3c2)CC1)O[C@@H]1CCN(c2cn[nH]c(=O)c2Cl)C1 [P-0296, (R)-1-(5-chloro-6-oxo-1,6-dihydropyridazin-4-yl)pyrrolidin-3-yl ((1r,4R)-4-(benzo[d]thiazole-6-sulfonamido)cyclohexyl) carbamate] | 0.001 to 10 | 0.001 to 10
O=C(N[C@H]1CC[C@H](NS(=O)(=O)c2c(F)cccc2F)CC1)O[C@@H]1CCN(c2cn[nH]c(=O)c2Cl)C1 [P-0297, (R)-1-(5-chloro-6-oxo-1,6-dihydropyridazin-4-yl)pyrrolidin-3-yl ((1r,4R)-4-((2,6-difluorophenyl)sulfonamido)cyclohexyl)carbamate] | 0.001 to 10 | 0.001 to 10
O=C(N[C@H]1CC[C@H](NS(=O)(=O)c2cc(F)ccc2F)CC1)O[C@@H]1CCN(c2cn[nH]c(=O)c2Cl)C1 [P-0298, (R)-1-(5-chloro-6-oxo-1,6-dihydropyridazin-4-yl)pyrrolidin-3-yl ((1r,4R)-4-((2,5-difluorophenyl)sulfonamido)cyclohexyl)carbamate] | 0.001 to 10 | 0.001 to 10
O=C(N[C@H]1CC[C@H](NS(=O)(=O)c2ccsc2)CC1)O[C@@H]1CCN(c2cn[nH]c(=O)c2Cl)C1 [P-0299, (R)-1-(5-chloro-6-oxo-1,6-dihydropyridazin-4-yl)pyrrolidin-3-yl ((1r,4R)-4-(thiophene-3-sulfonamido)cyclohexyl) carbamate] | 0.001 to 10 | 0.001 to 10
O=C(N[C@H]1CC[C@H](NS(=O)(=O)c2cccs2)CC1)O[C@@H]1CCN(c2cn[nH]c(=O)c2Cl)C1 [P-0300, (R)-1-(5-chloro-6-oxo-1,6-dihydropyridazin-4-yl)pyrrolidin-3-yl ((1r,4R)-4-(thiophene-2-sulfonamido)cyclohexyl) carbamate] | 0.001 to 10 | 0.001 to 10
O=C(N[C@H]1CC[C@H](NS(=O)(=O)c2ccc(Cl)s2)CC1)O[C@@H]1CCN(c2cn[nH]c(=O)c2Cl)C1 [P-0301, (R)-1-(5-chloro-6-oxo-1,6-dihydropyridazin-4-yl)pyrrolidin-3-yl ((1r,4R)-4-((5-chlorothiophene)-2-sulfonamido)cyclohexyl) carbamate] | 0.001 to 10 | 0.001 to 10
Cc1noc(C)c1S(=O)(=O)N[C@H]1CC[C@H](NC(=O)O[C@@H]2CCN(c3cn[nH]c(=O)c3Cl)C2)CC1 [P-0302, (R)-1-(5-chloro-6-oxo-1,6-dihydropyridazin-4-yl)pyrrolidin-3-yl ((1r,4R)-4-((3,5-dimethylisoxazole)-4-sulfonamido)cyclohexyl) carbamate] | 0.001 to 10 | 0.001 to 10
COCCS(=O)(=O)N[C@H]1CC[C@H](NC(=O)O[C@@H]2CCN(c3cn[nH]c(=O)c3Cl)C2)CC1 [P-0303, (R)-1-(5-chloro-6-oxo-1,6-dihydropyridazin-4-yl)pyrrolidin-3-yl ((1r,4R)-4-((2-methoxyethyl)sulfonamido)cyclohexyl)carbamate] | 0.001 to 10 | 0.001 to 10
O=C(N[C@H]1CC[C@H](NS(=O)(=O)CCC(F)(F)F)CC1)O[C@@H]1CCN(c2cn[nH]c(=O)c2Cl)C1 [P-0304, (R)-1-(5-chloro-6-oxo-1,6-dihydropyridazin-4-yl)pyrrolidin-3-yl ((1r,4R)-4-((3,3,3-trifluoropropyl)sulfonamido)cyclohexyl)carbamate] | 0.001 to 10 | 0.001 to 10
O=C(N[C@H]1CC[C@H](NS(=O)(=O)CC(F)(F)F)CC1)O[C@@H]1CCN(c2cn[nH]c(=O)c2Cl)C1 [P-0305, (R)-1-(5-chloro-6-oxo-1,6-dihydropyridazin-4-yl)pyrrolidin-3-yl ((1r,4R)-4-((2,2,2-trifluoroethyl)sulfonamido)cyclohexyl)carbamate] | 0.001 to 10 | 0.001 to 10
O=C(N[C@H]1CC[C@H](NS(=O)(=O)Cc2ccccc2)CC1)O[C@@H]1CCN(c2cn[nH]c(=O)c2Cl)C1 [P-0306, (R)-1-(5-chloro-6-oxo-1,6-dihydropyridazin-4-yl)pyrrolidin-3-yl ((1r,4R)-4-((phenylmethyl)sulfonamido)cyclohexyl)carbamate] | 0.001 to 10 | 0.001 to 10
N#CCS(=O)(=O)N[C@H]1CC[C@H](NC(=O)O[C@@H]2CCN(c3cn[nH]c(=O)c3Cl)C2)CC1 [P-0307, (R)-1-(5-chloro-6-oxo-1,6-dihydropyridazin-4-yl)pyrrolidin-3-yl ((1r,4R)-4-((cyanomethyl)sulfonamido)cyclohexyl)carbamate] | 0.001 to 10 | 0.001 to 10
